Results taken from patent publication US11339161B2, “Triazolo pyridines as modulators of gamma-secretase” (Boehringer Ingelheim International GmbH, priority 2017, dated 2022).
Like-named read-outs stand apart in the source and are kept apart here.

Tests used:
KDR (VEGFR2) = KDR (VEGFR2) (Homo sapiens, UniProt P35968); assay: Z'-LYTE SelectScreen biochemical kinase assay KDR (VEGFR2)
Text: (§1) Thermo Fisher Scientific SelectScreen™ Biochemical Kinase Profiling Service Z′-LYTE™ Screening Protocol and Assay Conditions Assay Theory
(§2) The […] biochemical assay employs a fluorescence-based, coupled-enzyme format and is based on the differential sensitivity of phosphorylated and non-phosphorylated peptides to proteolytic cleavage. The peptide substrate is labeled with two fluorophores—one at each end—that make up a FRET pair. In the primary reaction, the kinase transfers the gamma-phosphate of ATP to a single tyrosine, serine or threonine residue in a synthetic FRET-peptide. In the secondary reaction, a site-specific protease recognizes and cleaves non-phosphorylated FRET-peptides. Phosphorylation of FRET-peptides suppresses cleavage by the Development Reagent. Cleavage disrupts FRET between the donor (i.e., coumarin) and acceptor (i.e., fluorescein) fluorophores on the FRET-peptide, whereas uncleaved, phosphorylated FRET-peptides maintain FRET. A ratiometric method, which calculates the ratio (Emission Ratio=Coumarin emission (445 nm)/Fluorescein emission (520 nm)) of donor emission to acceptor emission after excitation of the donor fluorophore at 400 nm, is used to quantitate reaction progress, as shown in the equation below. A significant benefit of this ratiometric method for quantitating reaction progress is the elimination of well-to-well variations in FRET-peptide concentration and signal intensities. As a result, the assay yields very high Z′-factor values (>0.7) at a low percent phosphorylation. Both cleaved and uncleaved FRET-peptides contribute to the fluorescence signals and therefore to the Emission Ratio. The extent of phosphorylation of the FRET-peptide can be calculated from the Emission Ratio. The Emission Ratio will remain low if the FRET-peptide is phosphorylated (i.e., no kinase inhibition) and will be high if the FRET-peptide is non-phosphorylated (i.e., kinase inhibition).
(§3) The Test Compounds are screened in 1% DMSO (final) in the well. For 10 point titrations, 3-fold serial dilutions are conducted from the starting concentration of the customer's choosing.
(§4) All Peptide/Kinase Mixtures are diluted to a 2× working concentration in the appropriate Kinase Buffer (see section Kinase Specific Assay Conditions for a complete description).
(§5) All ATP Solutions are diluted to a 4× working concentration in Kinase Buffer (50 mM HEPES pH 7.5, 0.01% BRIJ-35, 10 mM MgCl2, 1 mM EGTA). ATP Km apparent is previously determined using a Z″-LYTE assay.
(§6) The Development Reagent is diluted in Development Buffer (see section Kinase-Specific Assay Conditions—Direct and Cascade for a complete description).
(§7) Bar-coded Corning, low volume NBS, black 384-well plate (Corning Cat. #4514) • 1. 100 nL—100× Test Compound in 100% DMSO • 2. 2.4 μL—Kinase buffer • 3. 5 μL—2× Peptide/Kinase Mixture • 4. 2.5 μL—4×ATP Solution • 5. 30—second plate shake • 6. 60—minute Kinase Reaction incubation at room temperature • 7. 5 μL—Development Reagent Solution • 8. 30—second plate shake • 9. 60—minute Development Reaction incubation at room temperature • 10. Read on fluorescence plate reader and analyze the data Z′-LYTE Assay Controls
(§8) SelectScreen Kinase Profiling Service uses XLfit from IDBS. The dose response curve is curve fit to model number 205 (sigmoidal dose-response model).
The 2×KDR (VEGFR2)/Tyr 01 mixture is prepared in 50 mM HEPES pH 7.5, 0.01% BRIJ-35, 10 mM MgCl2, 1 mM EGTA. The final 10 μL Kinase Reaction consists of 1-30 ng KDR (VEGFR2) and 2 μM Tyr 01 in 50 mM HEPES pH 7.5, 0.01% BRIJ-35, 10 mM MgCl2, 1 mM EGTA. After the 1 hour Kinase Reaction incubation, 5 μL of a 1:256 dilution of Development Reagent B is added.

MAP4K4 (HGK) = MAP4K4 (HGK) (Homo sapiens, UniProt O95819); assay: Z'-LYTE SelectScreen biochemical kinase assay MAP4K4 (HGK)
Text: as §1, §2, §3, §4, §5, §6, §7, §8
The 2×MAP4K4 (HGK)/Ser/Thr 07 mixture is prepared in 50 mM HEPES pH 7.5, 0.01% BRIJ-35, 10 mM MgCl2, 1 mM EGTA. The final 10 μL Kinase Reaction consists of 0.36-1.82 ng MAP4K4 (HGK) and 2 μM Ser/Thr 07 in 50 mM HEPES pH 7.5, 0.01% BRIJ-35, 10 mM MgCl2, 1 mM EGTA. After the 1 hour Kinase Reaction incubation, 5 μL of a 1:45000 dilution of Development Reagent A is added.

[1] = 10 μmolar compound concentration, ATP at Km app, read-out: KDR (VEGFR2) inhibition
[2] = read-out: % Inhibition mean KDR (VEGFR2)
[3] = 10 μmolar compound concentration, ATP at Km app, read-out: MAP4K4 (HGK) inhibition
[4] = read-out: % Inhibition mean MAP4K4 (HGK)

Chain of MAP4K4 (HGK) (O95819 whole entry): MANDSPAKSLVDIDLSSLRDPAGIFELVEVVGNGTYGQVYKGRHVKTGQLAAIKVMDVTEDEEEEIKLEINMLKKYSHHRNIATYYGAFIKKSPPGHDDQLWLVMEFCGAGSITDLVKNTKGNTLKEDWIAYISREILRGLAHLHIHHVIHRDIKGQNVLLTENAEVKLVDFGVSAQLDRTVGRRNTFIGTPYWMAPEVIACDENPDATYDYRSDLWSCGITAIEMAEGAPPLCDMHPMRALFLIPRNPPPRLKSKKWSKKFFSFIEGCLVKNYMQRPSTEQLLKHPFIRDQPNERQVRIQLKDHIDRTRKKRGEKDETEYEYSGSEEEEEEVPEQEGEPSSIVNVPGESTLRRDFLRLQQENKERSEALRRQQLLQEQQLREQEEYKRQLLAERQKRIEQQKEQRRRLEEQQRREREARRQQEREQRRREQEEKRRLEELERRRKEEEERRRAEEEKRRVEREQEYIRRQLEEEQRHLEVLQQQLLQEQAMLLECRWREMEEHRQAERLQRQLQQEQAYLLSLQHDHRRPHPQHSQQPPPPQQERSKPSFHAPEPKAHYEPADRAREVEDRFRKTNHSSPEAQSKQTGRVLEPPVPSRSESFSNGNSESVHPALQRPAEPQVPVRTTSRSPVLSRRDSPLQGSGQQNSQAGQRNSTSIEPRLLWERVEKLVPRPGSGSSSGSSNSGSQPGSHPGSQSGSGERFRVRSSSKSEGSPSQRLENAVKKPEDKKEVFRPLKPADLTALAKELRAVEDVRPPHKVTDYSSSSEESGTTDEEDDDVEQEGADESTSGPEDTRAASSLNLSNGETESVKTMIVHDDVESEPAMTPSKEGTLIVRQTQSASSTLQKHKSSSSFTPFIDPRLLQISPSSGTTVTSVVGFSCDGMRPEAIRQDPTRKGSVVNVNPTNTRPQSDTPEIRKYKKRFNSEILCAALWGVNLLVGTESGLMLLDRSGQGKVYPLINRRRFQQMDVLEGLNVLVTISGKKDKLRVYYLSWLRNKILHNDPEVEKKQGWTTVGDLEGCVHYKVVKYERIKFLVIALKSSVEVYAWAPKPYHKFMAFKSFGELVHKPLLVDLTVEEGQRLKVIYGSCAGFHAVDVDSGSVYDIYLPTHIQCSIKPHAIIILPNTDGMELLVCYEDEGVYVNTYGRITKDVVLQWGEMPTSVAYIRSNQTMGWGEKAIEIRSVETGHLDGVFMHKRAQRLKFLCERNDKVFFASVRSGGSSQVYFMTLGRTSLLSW
Chain of KDR (VEGFR2) (P35968 20-1356): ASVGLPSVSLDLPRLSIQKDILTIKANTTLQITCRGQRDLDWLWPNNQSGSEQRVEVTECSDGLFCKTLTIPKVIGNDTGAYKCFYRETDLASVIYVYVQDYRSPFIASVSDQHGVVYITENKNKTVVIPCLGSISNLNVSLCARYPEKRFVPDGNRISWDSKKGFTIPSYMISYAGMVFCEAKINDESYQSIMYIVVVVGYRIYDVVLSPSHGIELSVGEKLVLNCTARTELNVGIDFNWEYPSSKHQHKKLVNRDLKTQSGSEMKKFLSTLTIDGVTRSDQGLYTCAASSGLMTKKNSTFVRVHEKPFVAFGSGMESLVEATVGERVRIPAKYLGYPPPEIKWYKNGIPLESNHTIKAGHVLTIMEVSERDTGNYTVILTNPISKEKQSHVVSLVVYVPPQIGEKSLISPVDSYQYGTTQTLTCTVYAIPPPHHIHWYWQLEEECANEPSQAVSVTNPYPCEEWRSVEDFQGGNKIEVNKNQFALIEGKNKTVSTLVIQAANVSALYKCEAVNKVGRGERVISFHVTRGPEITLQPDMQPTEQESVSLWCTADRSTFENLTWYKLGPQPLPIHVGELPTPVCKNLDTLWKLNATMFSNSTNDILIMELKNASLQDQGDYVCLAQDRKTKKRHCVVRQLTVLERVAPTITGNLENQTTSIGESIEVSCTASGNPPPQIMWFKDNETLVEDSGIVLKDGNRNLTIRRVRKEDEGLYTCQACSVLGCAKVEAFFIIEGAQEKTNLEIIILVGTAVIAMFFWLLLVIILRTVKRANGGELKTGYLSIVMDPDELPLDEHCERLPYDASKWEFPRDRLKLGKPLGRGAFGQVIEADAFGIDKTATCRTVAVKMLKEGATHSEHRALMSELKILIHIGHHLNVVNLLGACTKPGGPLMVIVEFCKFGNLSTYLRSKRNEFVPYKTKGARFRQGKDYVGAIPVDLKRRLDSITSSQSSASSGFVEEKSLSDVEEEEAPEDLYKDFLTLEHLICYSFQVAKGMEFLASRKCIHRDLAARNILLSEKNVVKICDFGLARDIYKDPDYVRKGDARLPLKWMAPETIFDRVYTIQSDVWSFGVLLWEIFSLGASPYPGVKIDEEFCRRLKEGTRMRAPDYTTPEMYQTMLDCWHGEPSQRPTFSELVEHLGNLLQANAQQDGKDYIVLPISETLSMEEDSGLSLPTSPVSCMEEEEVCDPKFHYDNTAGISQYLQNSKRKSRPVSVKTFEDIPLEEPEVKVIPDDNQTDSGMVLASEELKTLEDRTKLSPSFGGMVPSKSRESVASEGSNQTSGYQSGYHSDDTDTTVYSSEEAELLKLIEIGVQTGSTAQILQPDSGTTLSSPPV

SMILES | inhibition at 10 µM (KDR (VEGFR2); [1]) [%] | inhibition at 10 µM (KDR (VEGFR2); [2]) [%] | inhibition at 10 µM (MAP4K4 (HGK); [3]) [%] | inhibition at 10 µM (MAP4K4 (HGK); [4]) [%] | inhibition at 10 µM (KDR (VEGFR2); read-out: % Inhibition mean) [%] | inhibition at 10 µM (MAP4K4 (HGK); read-out: % Inhibition mean) [%]
Cc1cc(F)ccc1-c1cccn2nc(NC3CCc4c(cnn4C(C)C)C3)nc12 (stereo not drawn) [Example 44, [8-(4-fluoro-2-methyl-phenyl)-[1,2,4]triazolo[1,5-a]pyridine-2-yl]-(1-isopropyl-4,5,6,7-tetrahydro-1H-indazol-5-yl)-amine] | < 40 | 3 | < 40 | 37 |  | 
CC1(C)NC(=O)c2ccc(Nc3nc4c(-c5cccc(F)c5)cccn4n3)cc21 [Cpd. 302 in WO09155551, reference compound] | > 80 |  | > 80 |  | 101 | 99
CCn1nnc2c1CCC(Nc1nc3c(-c4ccc(F)cc4C)cccn3n1)C2 (stereo not drawn) [Example 51, (1-Ethyl-4,5,6,7-tetrahydro-1H-benzotriazol-5-yl)-[8-(4-fluoro-2-methyl-phenyl)-[1,2,4]triazolo[1,5-a]pyridine-2-yl]-amine] | < 40 | -10 | < 40 | -8 |  | 
CCn1ncc2c1CCC(Nc1nc3c(-c4cncc(Cl)c4)cccn3n1)C2 (stereo not drawn) [Example 73, [8-(5-Chloro-pyridin-3-yl)-[1,2,4]triazolo[1,5-a]pyridine-2-yl]-(1-ethyl-4,5,6,7-tetrahydro-1H-indazol-5-yl)-amine] | < 40 | 8 | 40 to 80 | 74 |  | 
CCn1ncc2c1CC[C@H](Nc1nc3c(-c4ccc(F)c(Cl)c4)cccn3n1)C2 [Example S-61, (S)-[8-(3-Chloro-4-fluoro-phenyl)-[1,2,4]triazolo[1,5-a]pyridine-2-yl]-(1-ethyl-4,5,6,7-tetrahydro-1H-indazol-5-yl)-amine] | < 40 | -15 | < 40 | 11 |  | 
CCn1nc(Cl)c2c1CCC(Nc1nc3c(-c4ccc(F)cc4C)cccn3n1)C2 (stereo not drawn) [Example 48, (3-Chloro-1-ethyl-4,5,6,7-tetrahydro-1H-indazol-5-yl)-[8-(4-fluoro-2-methyl-phenyl)-[1,2,4]triazolo[1,5-a]pyridine-2-yl]-amine] | < 40 | 2 | 40 to 80 | 50 |  | 
CCn1ncc2c1CCC(Nc1nc3c(-c4cccnc4OC)cccn3n1)C2 (stereo not drawn) [Example 69, (1-Ethyl-4,5,6,7-tetrahydro-1H-indazol-5-yl)-[8-(2-methoxy-pyridin-3-yl)-[1,2,4]triazolo[1,5-a]pyridine-2-yl]-amine] | < 40 | 8 | < 40 | 39 |  | 
CC1(C)C(=O)Nc2ccc(Nc3nc4c(-c5cccc(F)c5)cccn4n3)cc21 [Cpd. 263 in WO09155551, reference compound] | > 80 |  | > 80 |  | 99 | 98
Cc1cc(F)ccc1-c1cccn2nc(NC3CCc4c(cnn4C)C3)nc12 (stereo not drawn) [Example 10, [8-(4-fluoro-2-methyl-phenyl)-[1,2,4]triazolo[1,5-a]pyridine-2-yl]-(1-methyl-4,5,6,7-tetrahydro-1H-indazol-5-yl)-amine] | < 40 | -2 | < 40 | 37 |  | 
CCCCn1ncc2c1CCC(Nc1nc3c(-c4ccc(F)cc4C)cccn3n1)C2 (stereo not drawn) [Example 46, [8-(4-fluoro-2-methyl-phenyl)-[1,2,4]triazolo[1,5-a]pyridine-2-yl]-(1-butyl-4,5,6,7-tetrahydro-1H-indazol-5-yl)-amine] | < 40 | 3 | 40 to 80 | 48 |  | 
CCn1ncc2c1CCC(Nc1nc3c(-c4cnccc4OC)cccn3n1)C2 (stereo not drawn) [Example 68, (1-Ethyl-4,5,6,7-tetrahydro-1H-indazol-5-yl)-[8-(4-methoxy-pyridin-3-yl)-[1,2,4]triazolo[1,5-a]pyridine-2-yl]-amine] | < 40 | 18 | 40 to 80 | 42 |  | 
CCc1nn(C)c2c1CCC(Nc1nc3c(-c4ccc(F)cc4C)cccn3n1)C2 (stereo not drawn) [Example 54, (3-Ethyl-1-methyl-4,5,6,7-tetrahydro-1H-indazol-6-yl)-[8-(4-fluoro-2-methyl-phenyl)-[1,2,4]triazolo[1,5-a]pyridine-2-yl]-amine] | < 40 | 5 | < 40 | 25 |  | 
CCCCCn1ncc2c1CCC(Nc1nc3c(-c4ccc(F)cc4C)cccn3n1)C2 (stereo not drawn) [Example 47, [8-(4-fluoro-2-methyl-phenyl)-[1,2,4]triazolo[1,5-a]pyridine-2-yl]-(1-pentyl-4,5,6,7-tetrahydro-1H-indazol-5-yl)-amine] | < 40 | 6 | < 40 | 32 |  | 
CCn1ncc2c1C(C)CC(Nc1nc3c(-c4cc(F)c(F)c(F)c4)cccn3n1)C2 (stereo not drawn) [Example 49, (1-Ethyl-7-methyl-4,5,6,7-tetrahydro-1H-indazol-5-yl)-[8-(3,4,5-trifluoro-phenyl)-[1,2,4]triazolo[1,5-a]pyridine-2-yl]-amine] | < 40 | 8 | 40 to 80 | 54 |  | 
Fc1cccc(-c2cccn3nc(Nc4ccc5[nH]cnc5c4)nc23)c1 [Cpd. 293 in WO09155551, reference compound] | > 80 |  | > 80 |  | 98 | 95
Cc1cc(F)ccc1-c1cccn2nc(NC3CCc4cnn(C)c4C3)nc12 (stereo not drawn) [Example 40, [8-(4-Fluoro-2-methyl-phenyl)-[1,2,4]triazolo[1,5-a]pyridine-2-yl]-(1-methyl-4,5,6,7-tetrahydro-1H-indazol-6-yl)-amine] | < 40 | -10 | 40 to 80 | 45 |  | 
CCn1ncc2c1CCC(Nc1nc3c(-c4ccc(F)cc4C)cccn3n1)C2 (stereo not drawn) [Example 42, (1-Ethyl-4,5,6,7-tetrahydro-1H-indazol-5-yl)-[8-(4-fluoro-2-methyl-phenyl)-[1,2,4]triazolo[1,5-a]pyridine-2-yl]-amine] | < 40 | -3 | < 40 | 37 |  | 
CCn1ncc2c1CCC(Nc1nc3c(-c4ccccc4)cccn3n1)C2 (stereo not drawn) [Example 57, (1-Ethyl-4,5,6,7-tetrahydro-1H-indazol-5-yl)-(8-phenyl-[1,2,4]triazolo[1,5-a]pyridine-2-yl)-amine] | < 40 | 18 | 40 to 80 | 58 |  | 
